{"source": "patent US20190344265A1", "about": "“Networked Cell Holder Chip” (priority 2018, published 2019)", "system": "breast cancer cells", "assay": "Cell protrusion length of breast cancer cells in the networked cell-holder chip (time course imaging)", "type": "cell-based", "source_text": "To load the cells into the chip of the present invention, a medium containing suspended cells is dropped onto the surface of the well plate of a chip of the present invention via a multichannel pipette or liquid handling system. In some embodiments of the present invention, 20-ml of the medium is dropped onto a chip of the present invention having a width of 86 mm, a length of 128 mm, and height of 14 mm. The chip is loaded on one of the receptors 302 of the bucket rotor 300. The bucket rotor is spun by the centrifuge 304 to drive the cells into the microwells of the chip. […] Filter papers (e.g., manufactured by Whatman) are used to swipe away the unloaded cells. Finally, the cells are cultured at 37° C. in the chip 100 a humidified atmosphere with 5% CO2, to enable protrusions to extend in the microchannels. The cells are also stained (for example, with green fluorescent protein—GFP) to enhance visibility of the cells and protrusions. […] The loaded breast cancer cells in both chips were incubated overnight. In the chip that was to be treated with the drug, the medium was replaced by a fresh culture medium mixed with paclitaxel concentration of 0.5 μM, after the incubation period."}
{"smiles": "CC(=O)O[C@H]1C(=O)[C@@]2(C)[C@H]([C@H](OC(=O)c3ccccc3)[C@]3(O)C[C@H](OC(=O)[C@H](O)[C@@H](NC(=O)c4ccccc4)c4ccccc4)C(C)=C1C3(C)C)[C@]1(OC(C)=O)CO[C@@H]1C[C@@H]2O", "note": "[paclitaxel]", "values": [{"measurement": "time until effects of the drug on the cancer cells were clear", "setting": "breast cancer cells in chip, paclitaxel 0.5 μM", "result": "within one hour"}, {"measurement": "normalized length of cell protrusion over time", "setting": "breast cancer cells incubated overnight in chip, then medium with paclitaxel 0.5 μM, sample of 51 cells (FIG. 29), untreated comparison 64 cells (FIG. 28)", "result": "reduces the length of the protrusions"}]}
